Measurements reported in ChEMBL document CHEMBL1143112, “Three-component, one-pot synthesis of novel 2,4-substituted 5-azolylthiopyrimidine library for screening against anti-influenza virus A” (Bioorg Med Chem Lett, 2008).
≈ marks a conversion by molar mass, not a printed value.

Experiments:
[1] = Selectivity index, CC50 for dog MDCK cells to IC50 for influenza A virus H3N2; format: functional
[2] = Cytotoxicity against dog MDCK cells; format: cell-based, Canis lupus familiaris
Influenza B virus = assay: Antiviral activity against influenza B virus expressed in dog MDCK cells assessed as reduction of virus-induced cytopathic effect; format: functional, organism-based

**Q.** With Cn1ccnc1Sc1cnc(C(C)(C)C)nc1-c1ccccc1O as the molecule, how does the Selectivity index [1] read?
**A.** 9

**Q.** For CC(C)(C)c1nccc(-c2ccccc2O)n1, which CC50 [2] is on record?
**A.** 16200 µg/mL (≈ 71.2 mM)

**Q.** Which CC50 [2] does the source give for CC(C)(C)c1ncc(Sc2nc[nH]n2)c(-c2cc(Cl)ccc2O)n1 here?
**A.** 9580 µg/mL (≈ 26.5 mM)

**Q.** With COc1ccc(O)c(-c2nc(SC)ncc2Sc2nccn2C)c1 as the molecule, how does the CC50 [2] read?
**A.** 7190 µg/mL (≈ 19.9 mM)

**Q.** With NC(=O)c1ncn([C@@H]2O[C@H](CO)[C@@H](O)[C@H]2O)n1 [RIBAVIRIN] as the molecule, how does the IC50 (Influenza B virus) read?
**A.** 4270 µg/mL (≈ 17.5 mM)
